# What was measured:
# Format in all cases: cell-based
# [1] = system: human epidermal progenitors; assay: in vitro; conditions: 72 h
# Experimental: Proliferation rates were determined using a TACS® MTT Cell Proliferation Kit (R&D systems, Minneapolis, Minn.). Cells were seeded at 2.5×10^4/well in 96-well plates in a humidified atmosphere with 5 percent CO2 at 37 degrees Celsius. Twenty-four hours later, decapeptide-12 or oxyresveratrol were added to the corresponding wells at varying concentrations (0, 3, 10, 30, 100, 300, and 1000 μM), and cultures were then incubated for 72 hours. The remainder of the procedure was performed following the manufacturer's protocol.
# Proliferation rates for three human cell lines (epidermal progenitors, melanoblasts, and fibroblasts) were determined using a TACS® MTT Cell Proliferation Kit. Cells were seeded at 2.5×10^4/well in 96-well plates in a humidified atmosphere with 5 percent CO2 at 37 degrees Celsius. Twenty-four hours later, the decapeptides were added to the corresponding wells at varying concentrations and incubated for 72 hours. The remainder of the procedure was performed following the manufacturer's protocol.
# [2] = system: human epidermal progenitors; assay: Trypan blue dye exclusion cytotoxicity assay, 72 h, epidermal progenitors; conditions: human, 72 h
# Experimental: Cellular toxicity was measured using a trypan blue dye exclusion assay. Cells were cultured in 6-well plates at a density of 4×10^5 cells/well. Each well received a different concentration of decapeptide-12 or oxyresveratrol (0, 3, 10, 30, 100, 300, and 1000 μM). Plates were incubated at 37 degrees Celsius in a humidified 5 percent CO2 chamber. After 72 h, an aliquot was taken and cells counted using a hemacytometer. Cytotoxicity was measured according to the following formula: [1−(# of cells in control−# of live cells in test sample)/# of cells in control]×100 percent.
# SIRT6 = SIRT6 transcription, semi-quantitative RT-PCR in human epidermal progenitors; conditions: 72 h
# Experimental: (§1) Human neonatal epidermal progenitors (Thermo Fisher Scientific, NY) were seeded in 6-well plates at a density of 2×10^5 cells/well. Each well received 2 ml of Epilife media containing 60 μM calcium chloride (Thermo Fisher Scientific, NY). Plates were incubated in a humidified chamber at 37 degrees Celsius and 5 percent CO2. Twenty-four hours later, cells were treated with various concentrations of oxyresveratrol or decapeptide-12 dissolved in PBS containing 5 percent DMSO. Control wells received vehicle only (5 percent DMSO and PBS). Final concentration of DMSO in each well was 0.05 percent.
# (§2) After a 72 hour incubation period, cells were trypsinized and total RNA extracted, using RNeasy kit (Qiagen, Valencia, Calif.) according to the manufacturer's protocol.
# (§3) RNA concentration was determined using nanodrop (Thermo fisher scientific, NY). Two μg of total RNA were used to synthesize cDNA using oligo dT primers and TaqMan reverse transcription reagents (Thermo fisher scientific, NY). The reaction was carried out in DNA Engine Peltier Thermal Cycler (Bio-Rad, Hercules, Calif.). The annealing temperature was 25 degrees Celsius for 10 minutes, followed by first strand synthesis at 48 degrees Celsius for 1 hour, and heat inactivation at 95 degrees Celsius for 5 minutes.
# (§4) The SIRT1-7 primers (table 1) were designed using Primer3. The semi-quantitative PCR reactions were performed on a DNA Engine Peltier Thermo Cycler (Bio-Rad, Hercules, Calif.). PCR was carried under the following conditions: denaturation at 94 degrees Celsius for 2 minutes and primer extension at 54 degrees Celsius for 30 seconds in 34 cycles for SIRT 1-7 and the housekeeping gene 18S.
# (§5) Samples were run and resolved on a 1.5 percent agarose gel containing 0.5 μg/ml of ethidium bromide and imaged using the FluorChem HD2 Imaging System (Protein simple, San Jose, Calif.). Densitometry analysis was carried out using the AlphaEase FC software (Protein simple, San Jose, Calif.). Intensity ratios were calculated as the intensity value for each gene divided by the intensity value of the internal control gene 18S.
# (§6) The effect of the decapeptides P4, P4A, P4B, and P4C upon the transcription levels of sirtuins 1-7 was evaluated. Table 4 summarizes transcription levels for all four decapeptides with the corresponding genes, at tested concentrations of: 10, 30, 50, 100, and 300 (all in μM).
# SIRT4 = SIRT4 transcription, semi-quantitative RT-PCR in human epidermal progenitors; conditions: 72 h
# Experimental: as §1, §2, §3, §4, §5, §6
# SIRT2 = SIRT2 transcription, semi-quantitative RT-PCR in human epidermal progenitors; conditions: 72 h
# Experimental: as §1, §2, §3, §4, §5, §6
# SIRT5 = SIRT5 transcription, semi-quantitative RT-PCR in human epidermal progenitors; conditions: 72 h
# Experimental: as §1, §2, §3, §4, §5, §6
# SIRT1 = SIRT1 transcription, semi-quantitative RT-PCR in human epidermal progenitors; conditions: 72 h
# Experimental: as §1, §2, §3, §4, §5, §6
# SIRT3 = SIRT3 transcription, semi-quantitative RT-PCR in human epidermal progenitors; conditions: 72 h
# Experimental: as §1, §2, §3, §4, §5, §6
# SIRT7 = SIRT7 transcription, semi-quantitative RT-PCR in human epidermal progenitors; conditions: 72 h
# Experimental: as §1, §2, §3, §4, §5, §6
structure (smiles),measurement,setting,value
"Oc1cc(O)cc(/C=C/c2ccc(O)cc2O)c1 [oxyresveratrol, Oxyresveratrol, reference compound]",reduced cell proliferation,[1]; 300 μM,5±1%
same,reduced cell proliferation,[1]; 1 mM,12±2%
same,cell death,[2]; 100 μM,6±1%
same,cell death,[2]; 1 mM,16±2%
same,SIRT6 transcription increase relative to control,SIRT6; 3 μM,6.1 ± 1%
same,SIRT6 transcription increase relative to control,SIRT6; 10 μM,34 ± 5.5%
same,SIRT6 transcription increase relative to control,SIRT6; 30 μM,73±8%
same,SIRT6 transcription increase relative to control,"SIRT6; 30 μM, listed as Oxy",73 ± 8.1%
same,SIRT6 transcription increase relative to control,SIRT6; 50 μM,81.3 ± 8.1%
same,SIRT6 transcription increase relative to control,SIRT6; 100 μM,82.4 ± 8.4%
same,SIRT6 transcription increase relative to control,SIRT6; 300 μM,87.4 ± 9.3%
same,SIRT6 transcription increase relative to control,SIRT6; 500 μM,81.2 ± 12.4%
same,SIRT6 transcription increase relative to control,SIRT6; 1000 μM,75 ± 15.1%
same,SIRT4 transcription increase relative to control,SIRT4; 3 μM,8.1 ± 1%
same,SIRT4 transcription increase relative to control,SIRT4; 10 μM,12.4 ± 2.1%
same,SIRT4 transcription increase relative to control,SIRT4; 30 μM,49 ± 6.7%
same,SIRT4 transcription increase relative to control,SIRT4; 50 μM,52.1 ± 6.6%
same,SIRT4 transcription increase relative to control,SIRT4; 100 μM,64.1 ± 7.4%
same,SIRT4 transcription increase relative to control,SIRT4; 300 μM,67 ± 8.7%
same,SIRT4 transcription increase relative to control,SIRT4; 500 μM,61.2 ± 8.8%
same,SIRT4 transcription increase relative to control,SIRT4; 1000 μM,71.3 ± 9.2%
same,SIRT2 transcription increase relative to control,SIRT2; 3 μM,7.9 ± 2%
same,SIRT2 transcription increase relative to control,SIRT2; 10 μM,14.9 ± 1.9%
same,SIRT2 transcription increase relative to control,SIRT2; 30 μM,43.1 ± 2.4%
same,SIRT2 transcription increase relative to control,SIRT2; 50 μM,56.3 ± 7.7%
same,SIRT2 transcription increase relative to control,SIRT2; 100 μM,41.2 ± 8.1%
same,SIRT2 transcription increase relative to control,SIRT2; 300 μM,39 ± 9.3%
same,SIRT2 transcription increase relative to control,SIRT2; 500 μM,33.1 ± 12.4%
same,SIRT2 transcription increase relative to control,SIRT2; 1000 μM,31.2 ± 12.3%
same,SIRT5 transcription increase relative to control,SIRT5; 3 μM,7.1 ± 1%
same,SIRT5 transcription increase relative to control,SIRT5; 10 μM,12.3 ± 3%^
same,SIRT5 transcription increase relative to control,SIRT5; 30 μM,45.1 ± 4.3%
same,SIRT5 transcription increase relative to control,SIRT5; 50 μM,46 ± 4%
same,SIRT5 transcription increase relative to control,SIRT5; 100 μM,36.1 ± 6.7%
same,SIRT5 transcription increase relative to control,SIRT5; 300 μM,33.4 ± 7.1%
same,SIRT5 transcription increase relative to control,SIRT5; 500 μM,35.1 ± 8.1%
same,SIRT5 transcription increase relative to control,SIRT5; 1000 μM,37 ± 6.8%
same,SIRT1 transcription increase relative to control,SIRT1; 3 μM,8.7 ± 1%
same,SIRT1 transcription increase relative to control,SIRT1; 10 μM,45 ± 7.7%
same,SIRT1 transcription increase relative to control,SIRT1; 30 μM,125±9%
same,SIRT1 transcription increase relative to control,"SIRT1; 30 μM, listed as Oxy",124.5 ± 8.6%
same,SIRT1 transcription increase relative to control,SIRT1; 50 μM,166 ± 14.5%
same,SIRT1 transcription increase relative to control,SIRT1; 100 μM,187 ± 16.6%
same,SIRT1 transcription increase relative to control,SIRT1; 300 μM,187 ± 15.4%
same,SIRT1 transcription increase relative to control,SIRT1; 500 μM,176 ± 10%^
same,SIRT1 transcription increase relative to control,SIRT1; 1000 μM,175 ± 9%
same,SIRT3 transcription increase relative to control,SIRT3; 3 μM,10 ± 3%
same,SIRT3 transcription increase relative to control,SIRT3; 10 μM,52.7 ± 5.1%
same,SIRT3 transcription increase relative to control,SIRT3; 30 μM,133±5%
same,SIRT3 transcription increase relative to control,"SIRT3; 30 μM, listed as Oxy",133 ± 4.8%
same,SIRT3 transcription increase relative to control,SIRT3; 50 μM,156 ± 9.2%
same,SIRT3 transcription increase relative to control,SIRT3; 100 μM,148 ± 7.3%
same,SIRT3 transcription increase relative to control,SIRT3; 300 μM,152.2 ± 9%
same,SIRT3 transcription increase relative to control,SIRT3; 500 μM,151 ± 8.1%
same,SIRT3 transcription increase relative to control,SIRT3; 1000 μM,151 ± 7.4%
same,SIRT7 transcription increase relative to control,SIRT7; 3 μM,6.3 ± 1%
same,SIRT7 transcription increase relative to control,SIRT7; 10 μM,65 ± 2.9%
same,SIRT7 transcription increase relative to control,SIRT7; 30 μM,95±7%
same,SIRT7 transcription increase relative to control,"SIRT7; 30 μM, listed as Oxy",95 ± 6.7%
same,SIRT7 transcription increase relative to control,SIRT7; 50 μM,114 ± 8.1%
same,SIRT7 transcription increase relative to control,SIRT7; 100 μM,132 ± 7.6%
same,SIRT7 transcription increase relative to control,SIRT7; 300 μM,168 ± 4.8%
same,SIRT7 transcription increase relative to control,SIRT7; 500 μM,177 ± 6.6%
same,SIRT7 transcription increase relative to control,SIRT7; 1000 μM,165 ± 5.1%

# — US20180296456A1, “Decapeptide-12 Modulation of Sirtuin Gene Expression in Epidermal Keratinocyte Progenitors” (Escape Therapeutics, Inc., priority 2017, published 2018)
